Several values for one entry are separate records, joined by “and”; a condition that tells them apart may be missing. Equal values may be shown once. Read-outs that look alike come from different tables or passages of the source.
What was measured:
Type in all cases: biochemical
[1] = tested on: Collagenase from Clostridium histolyticum (EC.3.4.24.3); experiment: Collagenase inhibition assay (fluorogenic peptide substrate)
Procedure: The recent anti-collagenase assay was modified from that previously described by [Widyowati et al. (2016)]. In brief, 50 mmol L^−1 tricine buffer pH 7.5 supplemented with 400 mmol L^−1 NaCl and 10 mmol L^−1 CaCl2 was used as the buffering diluent. Collagenase from Clostridium histolyticum (EC.3.4.24.3) was dissolved in the buffer to a concentration of 1 mg L^−1. The enzyme substrate, MOCAc-PRO-Leu-Gly-Leu-A2pr (Dnp)-Ala-Arg-NH2, was prior dissolved in DMSO and subsequently diluted in the buffer to a concentration of 1 mmol L^−1. A sample dissolved in DMSO was diluted to different concentrations by using the buffer. A 2-µl sample solution was incubated with 100 µl enzyme solution at 37 °C for 10 min. Then, a 50-µl substrate was added and thoroughly mixed. Fluorescence emission (F) at 405 nm was immediately recorded and continually monitored for 30 min using a wavelength of 320 nm for excitation. Caffeic acid was used as a position control (Fig. 1). Negative control was performed with water. The percent inhibition (%) was calculated from the equation below:
%Inhibition={1–(Fsam,30–Fsam,0)÷(Fcont,30–Fcont,0)}×100.

[2] = target: porcine pancreatic elastase (EC.3.4.21.36) (Sus scrofa, UniProt P00772); experiment: Elastase inhibition assay (SANA substrate)
Procedure: The assay according to [Abhijit & Manjushree (2010)] was applied with some modifications. Briefly, the buffer system was 0.2 mM Tris-HCl buffer (pH 8.0). A solution of 1 µg mL^−1 porcine pancreatic elastase (EC.3.4.21.36) was prepared in sterile water. The enzyme substrate, N-Succinyl-Ala-Ala-Ala-p-nitroanilide (SANA), was dissolved in the buffer to a concentration of 80 mmol L^−1. A sample dissolved in DMSO was diluted to various concentrations by using the buffer. A 100-µl sample solution was mixed with 50 µl enzyme solution and incubated for 15 min. After that 50 µl of the enzyme substrate solution was added and thoroughly mixed. The OD410 was measured immediately (0 min) and after incubation overnight (o/n) at 37 °C by using a microplate reader. Ursolic acid was used as a positive control (Fig. 1), and water was used as a negative control. The percentage inhibition (%) was calculated by the following equation:
%Inhibition={1–[(Asam,o/n–Asam,0)÷(Acont,o/n–Acont,0)]}×100.

[3] = target: Mushroom tyrosinase (EC.1.14.18.1) (Agaricus bisporus, UniProt C7FF04); experiment: Tyrosinase inhibition assay (L-tyrosine substrate); settings: for inhibition at 10 µg/mL: conc 10 ug/ml; for inhibition at 12.5 µg/mL: conc 12.5 ug/ml; for inhibition at 15 µg/mL: conc 15 ug/ml
Procedure: In brief, the assay was carried out in 0.05 mol L^−1 phosphate buffer pH 6.8. Mushroom tyrosinase (EC.1.14.18.1) was dissolved in the buffer to a concentration of 100 units mL^−1. L-tyrosine, an enzyme substrate, was prepared to a concentration of 0.25 mg mL^−1 in the buffer. […] Into a well of 96-well plates, 10 µl sample and 40 µl L-tyrosine solution were mixed and incubated for 10 min at room temperature. After that 50 µl enzyme solution was inoculated and mixed thoroughly. The reaction was stopped afterward by incubation on ice for 1 min. […] The percentage inhibition (%) was calculated by the equation as follows:
%Inhibition={1–(Asam,10–Asam,0)÷(Acont,10–Acont,0)}×100.

[4] = individual replicates, read-out: % inhibition elastase, replicates 1-3
[5] = read-out: % inhibition elastase, ave
[6] = individual replicates, read-out: % inhibition tyrosinase, replicates 1-3
[7] = read-out: % inhibition tyrosinase, ave
[8] = individual replicates, read-out: % inhibition tyrosinase, N1-N3

Sequence of Mushroom tyrosinase (EC.1.14.18.1) (C7FF04 2-392): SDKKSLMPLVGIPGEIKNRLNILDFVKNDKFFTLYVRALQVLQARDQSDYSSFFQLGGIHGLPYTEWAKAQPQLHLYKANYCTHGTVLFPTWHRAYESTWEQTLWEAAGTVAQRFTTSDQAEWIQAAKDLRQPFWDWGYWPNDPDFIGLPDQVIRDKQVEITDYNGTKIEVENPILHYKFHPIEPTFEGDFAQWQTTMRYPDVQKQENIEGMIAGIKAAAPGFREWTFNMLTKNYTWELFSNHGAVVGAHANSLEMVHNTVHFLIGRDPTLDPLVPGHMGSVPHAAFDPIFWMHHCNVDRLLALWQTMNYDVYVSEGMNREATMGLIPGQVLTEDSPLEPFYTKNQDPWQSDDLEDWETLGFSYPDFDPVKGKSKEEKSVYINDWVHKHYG
Sequence of porcine pancreatic elastase (EC.3.4.21.36) (P00772 27-266): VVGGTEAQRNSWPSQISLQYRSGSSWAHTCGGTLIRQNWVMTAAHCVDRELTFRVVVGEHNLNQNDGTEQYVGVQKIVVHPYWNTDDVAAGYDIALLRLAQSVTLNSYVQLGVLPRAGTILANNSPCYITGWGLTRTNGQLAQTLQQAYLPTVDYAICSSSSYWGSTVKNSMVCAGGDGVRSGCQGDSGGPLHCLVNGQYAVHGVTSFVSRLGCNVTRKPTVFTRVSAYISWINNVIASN

Oc1cc(O)cc(CCCCCCCC=CCCCCCCCc2cc(O)cc(O)c2)c1 [Bisresorcinol, (8′Z)-3,5-dihydroxy-1-[16′-(3″,5″-dihydroxyphenyl)-8′-hexadecen-1′-yl]benzene]
% inhibition collagenase, ave ([1]; 56 uM): 0.0%
% inhibition collagenase, ave ([1]; 113 uM): 33.0%
% inhibition collagenase, ave ([1]; 226 uM): 81.31% and 81.3%
ic50 collagenase, ave ([1]; average of N1-N3): 69.5 µg/mL
% inhibition collagenase, ave ([1]; conc 25 ug/ml): 0.00%
% inhibition collagenase, N1-N3 ([1]; conc 25 ug/ml, individual replicates): 0.00% and 0% (2×)
% inhibition collagenase, ave ([1]; conc 50 ug/ml): 32.97%
% inhibition collagenase, N1-N3 ([1]; conc 50 ug/ml, individual replicates): 38.51% and 27.91% and 32.48%
% inhibition collagenase, ave ([1]; conc 100 ug/ml): 81.31%
% inhibition collagenase, N1-N3 ([1]; conc 100 ug/ml, individual replicates): 82.28% and 81.54% and 80.12%
ic50 collagenase, N1-N3 ([1]; individual replicates): 70.18 µg/mL and 67.47 µg/mL and 70.79 µg/mL
IC50 ([1]; individual replicates, read-out: ic50 collagenase, N1-N3): 158 µM and 152 µM and 160 µM
IC50 ([1]; mean ± SEM, triplicate, read-out: IC50 collagenase inhibition): 157 ± 2.3 µM
inhibition at 23 µM ([2]; 23 uM, read-out: % inhibition elastase, ave): 20.8%
inhibition at 34 µM [2, 4]: 46.5%
inhibition at 34 µM [2, 5]: 34.7%
inhibition at 45 µM [2, 4]: 99.6%
inhibition at 45 µM [2, 5]: 99.7%
inhibition at 50 µM ([2]; at 50 µmol L^−1, read-out: maximum inhibition of elastase): 100%
IC50 ([2]; average of N1-N3, read-out: ic50 elastase, ave (converted)): 33.4 µM
% inhibition elastase, N1-N3 ([2]; conc 10 ug/ml, individual replicates): 30.14% and 20.28% and 11.87%
inhibition at 10 µg/mL ([2]; conc 10 ug/ml, read-out: % inhibition elastase, ave): 20.8%
% inhibition elastase, N1-N3 ([2]; conc 15 ug/ml, individual replicates): 30.89% and 26.77%
inhibition at 15 µg/mL ([2]; conc 15 ug/ml, individual replicates, read-out: % inhibition elastase, N1-N3): 46.5%
inhibition at 15 µg/mL ([2]; conc 15 ug/ml, read-out: % inhibition elastase, ave): 34.7%
% inhibition elastase, N1-N3 ([2]; conc 20 ug/ml, individual replicates): 99.58% and 99.76%
inhibition at 20 µg/mL ([2]; conc 20 ug/ml, individual replicates, read-out: % inhibition elastase, N1-N3): 99.6%
inhibition at 20 µg/mL ([2]; conc 20 ug/ml, read-out: % inhibition elastase, ave): 99.7%
IC50 ([2]; individual replicates, read-out: ic50 elastase, N1-N3 (converted)): 35 µM and 31.2 µM and 34 µM and 34.8 µM and 31 µM and 33.8 µM
IC50 ([2]; mean ± SEM, triplicate, read-out: IC50 elastase inhibition): 33.2 ± 1.1 µM
inhibition at 10 µM [3, 6]: 52.4%
inhibition at 10 µM [3, 7]: 44.4%
inhibition at 28 µM [3, 6]: 81.8%
inhibition at 28 µM [3, 7]: 78.5%
inhibition at 30 µM [3, 6]: 81.8%
inhibition at 30 µM [3, 7]: 78.5%
inhibition at 34 µM [3, 6]: 86.3%
inhibition at 34 µM [3, 7]: 84.3%
inhibition at 40 µM [3, 6]: 119%
inhibition at 40 µM [3, 7]: 100%
inhibition at 50 µM ([3]; 50 uM, individual replicates, read-out: % inhibition tyrosinase, replicates 1-3): 138%
inhibition at 50 µM ([3]; 50 uM, read-out: % inhibition tyrosinase, ave): 100%
inhibition at 50 µM ([3]; at 50 µmol L^−1, read-out: tyrosinase inhibition): 100%
inhibition at 10 µg/mL [3, 8]: 52.4%
inhibition at 10 µg/mL [3, 7]: 44.4%
inhibition at 12.5 µg/mL [3, 8]: 81.8%
inhibition at 12.5 µg/mL [3, 7]: 78.5%
inhibition at 15 µg/mL [3, 8]: 86.3%
inhibition at 15 µg/mL [3, 7]: 84.2%
